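Grown in 96-well plates, cells were treated for 48 hours with each compound at five concentrations. Insufficient inhibition: endpoint recorded as highest concentration tested. TGI: total growth inhibition.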
Experiments:
Experiment in all cases: DTP human tumour cell line panel, 48 h
SK-OV-3 ovarian = test system: SK-OV-3 ovarian
UO-31 renal = test system: UO-31 renal
M19-MEL melanoma = test system: M19-MEL melanoma
A549 NSCLC = test system: A549 NSCLC
HCT-116 colon = test system: HCT-116 colon
SN12C renal = test system: SN12C renal
SF-268 CNS = test system: SF-268 CNS
RXF 393 renal = test system: RXF 393 renal
HT29 colon = test system: HT29 colon
K-562 leukemia = test system: K-562 leukemia
DMS 273 small cell lung = test system: DMS 273 small cell lung
HOP-18 NSCLC = test system: HOP-18 NSCLC
OVCAR-8 ovarian = test system: OVCAR-8 ovarian
OVCAR-3 ovarian = test system: OVCAR-3 ovarian
HOP-62 NSCLC = test system: HOP-62 NSCLC
DLD-1 colon = test system: DLD-1 colon
HCT-15 colon = test system: HCT-15 colon
RPMI-8226 leukemia = test system: RPMI-8226 leukemia
SK-MEL-28 melanoma = test system: SK-MEL-28 melanoma
IGROV1 ovarian = test system: IGROV1 ovarian
NCI-H226 lung = test system: NCI-H226 lung
U251 CNS = test system: U251 CNS
SF-539 CNS = test system: SF-539 CNS
KM20L2 colon = test system: KM20L2 colon
786-0 renal = test system: 786-0 renal
SK-MEL-2 melanoma = test system: SK-MEL-2 melanoma
SF-295 CNS = test system: SF-295 CNS
COLO 205 colon = test system: COLO 205 colon
SNB-78 CNS = test system: SNB-78 CNS
UACC-257 melanoma = test system: UACC-257 melanoma
MOLT-4 leukemia = test system: MOLT-4 leukemia
CAKI-1 renal = test system: CAKI-1 renal
NCI-H23 lung = test system: NCI-H23 lung
KM12 colon = test system: KM12 colon
SW-620 colon = test system: SW-620 colon
OVCAR-5 ovarian = test system: OVCAR-5 ovarian
SNB-19 CNS = test system: SNB-19 CNS
TK-10 renal = test system: TK-10 renal
HL-60(TB) leukemia = test system: HL-60(TB) leukemia
SR leukemia = test system: SR leukemia
EKVX NSCLC = test system: EKVX NSCLC
LXFL 529 NSCLC = test system: LXFL 529 NSCLC
SNB-75 CNS = test system: SNB-75 CNS
LOX IMVI melanoma = test system: LOX IMVI melanoma
NCI-H460 lung = test system: NCI-H460 lung
SK-MEL-5 melanoma = test system: SK-MEL-5 melanoma
A498 renal = test system: A498 renal
UACC-62 melanoma = test system: UACC-62 melanoma
OVCAR-4 ovarian = test system: OVCAR-4 ovarian
XF 498 CNS = test system: XF 498 CNS
NCI-H522 lung = test system: NCI-H522 lung
M14 melanoma = test system: M14 melanoma
MALME-3M melanoma = test system: MALME-3M melanoma
HCC-2998 colon = test system: HCC-2998 colon
HOP-92 NSCLC = test system: HOP-92 NSCLC
CCRF-CEM leukemia = test system: CCRF-CEM leukemia
ACHN renal = test system: ACHN renal

Measured: TGI

CCC1C(C(=O)Nc2ccccc2C)=C(C)NC(C)=C1c1ccccc1C (configuration not stated)
> 83.2 µM: DMS 273 small cell lung
> 67.1 µM: NCI-H460 lung
61.5 µM: RPMI-8226 leukemia
> 59.9 µM: SW-620 colon
31.5 µM: HL-60(TB) leukemia
> 76.7 µM: SR leukemia
> 59.7 µM: DLD-1 colon
> 61.1 µM: SF-268 CNS
> 77.6 µM: HCT-116 colon
> 54.8 µM: HCT-15 colon
> 100 µM: all other assays above

— PubChem BioAssay (NCI)
